This test has as its system peripheral blood mononuclear cells (PBMCs) from healthy donors. Nature of the test: IFN production by R848-activated PBMCs, quantified with twINNE luciferase reporter cell line. Format: cell-based, human. To be noted: Homo sapiens, PBMC; read-out: IC50 of anti-inflammatory activity (IFN production by activated PBMCs). The procedure:
The blood from healthy donors was obtained from “Etablissement Français du Sang” (convention #19/EFS/029), Paris, France.
In vitro experiments were performed using human peripheral blood mononuclear cells (PBMCs) isolated by density centrifugation from peripheral blood leukocyte separation medium, lymphoprep (Stemcell Technologies).
PBMCs were cultured in RPMI 1640 (Sigma-Aldrich, MO, USA) containing 10% heat-inactivated fetal bovine serum (Sigma-Aldrich, MO, USA) at 37° C./5% CO2.
The PBMCs used herein were prepared as described in part A “immune cells preparation”, above. PBMCs were seeded at 4.10^6/mL. Cells were pre-treated with different concentration of examples according to the invention. Cells were then stimulated with the TLR7/8 agonist resiquimod—R848 (Sigma-Aldrich, MO, USA) at 5 μg/mL.
To quantify the secretion of functional IFN, a biological assay based on a stable cell line where luciferase reporter gene is controlled by five Interferon-Stimulated Response Elements (twINNE cell line) was used. First, supernatants of R848-stimulated PBMCs (see part B above) were harvested after 24 h of stimulation and frozen at −20° C. for storage. Then, supernatants were dispensed in culture wells of a 96-well plate containing 35.103 twINNE cells per well in Dulbecco's Modified Eagle's Medium supplemented with 10% Foetal Bovine Serum, 100 U/mL Penicillin and 100 μg/mL Streptomycin (1% Pen-Strep) and 1 mM glutamine (Sigma-Aldrich, MO, USA) at 37° C./5% CO2. After 24 h of culture, luciferase activity was determined by adding 60 μL of Bright-Glo reagents (Promega, Wisconsin, USA) to culture wells and measuring bioluminescence with EnSpire Multimode Plate Reader (PerkinElmer, Massachusetts, USA). When stated, for IC50 calculation, dose-response curves fitted using the nonlin fit (variable slope) analysis in GraphPad Prism software (GraphPad Software, Califronia, USA).
IFN production was quantified (as specified in Materials and Methods, part C “quantification of interferon secretion”) using twINNE reporter cell line.
A general note: A reporter such as luciferase makes a cellular process visible.

The term pIC50 denotes the negative decadic logarithm of the IC50, by convention in mol/L.

pIC50: −log10 of the molar value. Structures can show the parent of a compound that is named as a salt. Bounds are passed on as bounds.

`C1=C(CSC2=NCC(C3CCCCC3)N2)N2Cc3ccccc3CN=C2S1` (stereo not shown) [Example 26, 3-(((4-cyclohexyl-4,5-dihydro-1H-imidazol-2-yl)thio)methyl)-5,10-dihydrobenzo[e]thiazolo[3,2-a][1,3]diazepine dihydrochloride]: the pIC50 was at least 5.00. As for `C1=C(CSC2=Nc3ccccc3C(c3ccccc3)N2)N2Cc3ccccc3CN=C2S1` (stereo not shown) [Example 27, 3-(((4-phenyl-3,4-dihydroquinazolin-2-yl)thio)methyl)-5,10-dihydrobenzo[e]thiazolo[3,2-a][1,3]diazepine dihydrochloride], the figure is at least 5.00; as for `C1=C(CSC2=NCc3ccccc3N2)N2Cc3cccnc3N=C2S1` [Example 28, 3-(((3,4-dihydroquinazolin-2-yl)thio)methyl)-5H-pyrido[2,3-d]thiazolo[3,2-a]pyrimidine trihydrochloride], at least 5.00; as for `CCCCC1CN=C(SCC2=CSC3=Nc4ccccc4CN23)N1` (stereo not shown) [Example 29, 3-(((5-butyl-4,5-dihydro-1H-imidazol-2-yl)thio)methyl)-5H-thiazolo[2,3-b]quinazoline dihydrochloride], at least 5.00. The figure for `CC1(c2ccccc2)CN=C(SCC2=CSC3=NCc4ccccc4CN23)N1` (stereo not shown) [Example 30, 3-(((5-methyl-5-phenyl-4,5-dihydro-1H-imidazol-2-yl)thio)methyl)-5,10-dihydrobenzo[e]thiazolo[3,2-a][1,3]diazepine dihydrochloride] is at least 5.00; for `C1=C(CSC2=N[C@@H]3CCCC[C@H]3N2)N2Cc3ccccc3N=C2S1` [Example 32, 3-((((3aR,7aR)-3a,4,5,6,7,7a-hexahydro-1H-benzo[d]imidazol-2-yl)thio)methyl)-5H-thiazolo[2,3-b]quinazoline dihydrochloride] it is at least 5.00; for `C1=C(CSC2=NCC(Cc3ccccc3)N2)N2Cc3ccccc3N=C2S1` (stereo not shown) [Example 33, 3-(((5-benzyl-4,5-dihydro-1H-imidazol-2-yl)thio)methyl)-5H-thiazolo[2,3-b]quinazoline dihydrochloride] it is at least 5.00.

As for `COc1ccc(CC2(C)CN=C(SCC3=CSC4=NCc5ccccc5CN34)N2)cc1` (stereo not shown) [Example 34, 3-(((5-(4-methoxybenzyl)-5-methyl-4,5-dihydro-1H-imidazol-2-yl)thio)methyl)-5,10-dihydrobenzo[e]thiazolo[3,2-a][1,3]diazepine dihydrochloride], the pIC50 is at least 5.00. Take `C1=C(CSC2=NCc3ccccc3N2)N2CCc3ccccc3N=C2S1` [Example 35, 3-(((3,4-dihydroquinazolin-2-yl)thio)methyl)-5,6-dihydrobenzo[d]thiazolo[3,2-a][1,3]diazepine dihydrochloride]: the pIC50 is at least 5.00. As for `CN1CCN=C1SCC1=CSC2=Nc3ccccc3CN12` [Example 36, 3-(((1-methyl-4,5-dihydro-1H-imidazol-2-yl)thio)methyl)-5H-thiazolo[2,3-b]quinazoline dihydrochloride], the figure is at least 5.00. For the compound `CCCCN1CCN=C1SCC1=CSC2=NCc3ccccc3CN12` [Example 37, 3-(((1-butyl-4,5-dihydro-1H-imidazol-2-yl)thio)methyl)-5,10-dihydrobenzo[e]thiazolo[3,2-a][1,3]diazepine dihydrochloride], the pIC50 was at least 5.00.

Consider `CC1(c2ccccc2)CN2C(CSC3=NCc4ccccc4N3)=CSC2=N1` (stereo not shown) [Example 38, 3-(((3,4-dihydroquinazolin-2-yl)thio)methyl)-6-methyl-6-phenyl-5,6-dihydroimidazo[2,1-b]thiazole dihydrochloride], for which the pIC50 was at least 5.00. Consider `Clc1ccc2c(c1)CN=C(SCC1=CSC3=Nc4ccccc4CN13)N2` [Example 39, 3-(((6-chloro-1,4-dihydroquinazolin-2-yl)thio)methyl)-5H-thiazolo[2,3-b]quinazoline dihydrochloride], for which the pIC50 is at least 5.00. The figure for `Clc1ccc2c(c1)CN1C(CSC3=N[C@@H]4CCCC[C@H]4N3)=CSC1=N2` [Example 40, 7-chloro-3-((((3aR,7aR)-3a,4,5,6,7,7a-hexahydro-1H-benzo[d]imidazol-2-yl)thio)methyl)-5H-thiazolo[2,3-b]quinazoline dihydrochloride] is at least 5.00; for `CCCCC1CN=C(SCC2=CSC3=Nc4ccc(Cl)cc4CN23)N1` (stereo not shown) [Example 41, 3-(((5-butyl-4,5-dihydro-1H-imidazol-2-yl)thio)methyl)-7-chloro-5H-thiazolo[2,3-b]quinazoline dihydrochloride] it is at least 5.00. The figure for `Clc1ccc2c(c1)N=C1SC=C(CSC3=NCc4ccccc4N3)N1C2` [Example 42, 8-chloro-3-(((1,4-dihydroquinazolin-2-yl)thio)methyl)-5H-thiazolo[2,3-b]quinazoline dihydrochloride] is at least 5.00; for `C1=C(CSC2=NCc3ccccc3N2)N2C(=Nc3ccccc3C2c2ccccc2)S1` (stereo not shown) [Example 43, 3-(((3,4-dihydroquinazolin-2-yl)thio)methyl)-5-phenyl-5H-thiazolo[2,3-b]quinazoline dihydrochloride] it is at least 5.00; for `Clc1ccc2c(c1)CN1C(CSC3=NCc4cc(Cl)ccc4N3)=CSC1=N2` [Example 44, 7-chloro-3-(((6-chloro-1,4-dihydroquinazolin-2-yl)thio)methyl)-5H-thiazolo[2,3-b]quinazoline dihydrochloride] it is below 4.49.

For `CN1CCN=C1SCC1=CSC2=Nc3ccc(Cl)cc3CN12` [Example 45, 7-chloro-3-(((1-methyl-4,5-dihydro-1H-imidazol-2-yl)thio)methyl)-5H-thiazolo[2,3-b]quinazoline dihydrochloride], the pIC50 is at least 5.00. Turning to `COc1ccc(CC2(C)CN3C(CSC4=NCc5ccccc5N4)=CSC3=N2)cc1` (stereo not shown) [Example 46, 3-(((3,4-dihydroquinazolin-2-yl)thio)methyl)-6-(4-methoxybenzyl)-6-methyl-5,6-dihydroimidazo[2,1-b]thiazole dihydrochloride], the pIC50 was at least 5.00. As for `Clc1ccc2c(c1)CN1C(CSC3=NCCN3Cc3ccccc3)=CSC1=N2` [Example 47, 3-(((1-benzyl-4,5-dihydro-1H-imidazol-2-yl)thio)methyl)-7-chloro-5H-thiazolo[2,3-b]quinazoline dihydrochloride], the figure is at least 5.00.

`CC(C)N1CCN=C1SCC1=CSC2=Nc3ccc(Cl)cc3CN12` [Example 48, 7-chloro-3-(((1-isopropyl-4,5-dihydro-1H-imidazol-2-yl)thio)methyl)-5H-thiazolo[2,3-b]quinazoline dihydrochloride]: the pIC50 is at least 5.00. The figure for `Clc1ccc2c(c1)CN1C(CSC3=NCC4CCCCN34)=CSC1=N2` (stereo not shown) [Example 49, 7-chloro-3-(((1,5,6,7,8,8a-hexahydroimidazo[1,5-a]pyridin-3-yl)thio)methyl)-5H-thiazolo[2,3-b]quinazoline dihydrochloride] is at least 5.00; for `c1ccc(CC2CN=C(SCCN3CCCCC3)N2)cc1` (stereo not shown) [Example 50, 1-(2-((5-benzyl-4,5-dihydro-1H-imidazol-2-yl)thio)ethyl)piperidine dihydrochloride] it is below 4.49.

For `c1ccc(CC2CN=C(SCCCN3CCCC3)N2)cc1` (stereo not shown) [Example 52, 5-benzyl-2-((3-(pyrrolidin-1-yl)propyl)thio)-4,5-dihydro-1H-imidazole dihydrochloride], the negative-log IC50 (pIC50) was below 4.49. The figure for `CN1CCCC1CSC1=NCC(Cc2ccccc2)N1` (stereo not shown) [Example 53, 5-benzyl-2-(((1-methylpyrrolidin-2-yl)methyl)thio)-4,5-dihydro-1H-imidazole dihydrochloride] is 4.49 to 5.00; for `c1ccc(CC2CN=C(SCCN3CCCC3)N2)cc1` (stereo not shown) [Example 54, 5-benzyl-2-((2-(pyrrolidin-1-yl)ethyl)thio)-4,5-dihydro-1H-imidazole dihydrochloride] it is 4.49 to 5.00. For `c1ccc(CC2CN=C(SCc3ccncc3)N2)cc1` (stereo not shown) [Example 56, 4-(((5-benzyl-4,5-dihydro-1H-imidazol-2-yl)thio)methyl)pyridine dihydrochloride], the pIC50 is 4.49 to 5.00. As for `CN1CCCC1CCSC1=NCC(Cc2ccccc2)N1` (stereo not shown) [Example 57, 5-benzyl-2-((2-(1-methylpyrrolidin-2-yl)ethyl)thio)-4,5-dihydro-1H-imidazole dihydrochloride], the pIC50 is below 4.49. As for `c1ccc(CC2CN=C(SCCN3CCCCCC3)N2)cc1` (stereo not shown) [Example 58, 1-(2-((5-benzyl-4,5-dihydro-1H-imidazol-2-yl)thio)ethyl)azepane dihydrochloride], the figure is 4.49 to 5.00. With `Clc1ccc2c(c1)CN=C(SCCN1CCCC1)N2` [Example 59, 6-chloro-2-((2-(pyrrolidin-1-yl)ethyl)thio)-1,4-dihydroquinazoline dihydrochloride], the pIC50 is at least 5.00.
